Values joined by “and” are separate entries in the source; they are usually repeats but may differ in a detail not shown here. Equal entries are not always repeated.

A word on the solubility: it is the dissolved amount per volume that the medium holds. The low end stands for a poorly soluble substance, the high end for a readily soluble substance. Usually Papp stands for the rate of passage across a membrane or cell layer, normalised by area and donor concentration. By EC50 is commonly meant the concentration giving half of the maximal effect.

Data set [1] relates to SARS-CoV-2. Briefly: microbe, parasite or virus in culture. Format: cell-based. The settings on record: for SI, Selectivity Index (ratio between CC50 and IC50): Caco-2 cells, SARS-CoV-2; for IC50: Severe acute respiratory syndrome coronavirus 2, Caco-2, 72 h, read-out: IC50, half-maximal compound concentration inhibiting 50% of the SARS-CoV-2 replication.
Data set [2] in a line: Aqueous solubility in Mill-Q H2O. To be noted: water, thermodynamic from solid.
Description: Chromatographic separations were obtained using a Phenomenex Kinetex C18-100 Å column (150 × 4.6 mm) with 5 µm particle size and gradient elution with a binary solution; (eluent A: H2O acidified with formic acid (FA) 0.1% v/v, eluent B: ACN/MeOH 1:1 v/v) at room temperature. The analysis started with 5% of B (from t = 0 to t = 1 min), then B was increased to 95% (from t = 1 to t = 10 min), then kept at 95% (from t = 10 to t = 15 min) and finally returned to 5% of eluent A in one minute. The instrument worked in positive mode and the UV detector operated at 254 nm.
One mg of each compound was added with 1 mL of Mill-Q H2O. The samples were maintained under shaking at room temperature (RT) overnight. The suspensions were filtered using a 0.45 µm nylon filter (Acrodisc), and the amount of solubilized compound was determined with the HPLC-UV-MS method above reported. The quantification of the solubilized compound was created with the appropriate calibration curve realized with stock solutions in DMSO (0.1–100 µg/mL); the limit of detection (LOD) was quantified at 0.1 µg/mL.
Data set [3] concerns the target human helicase DDX3X (Homo sapiens, UniProt O00571). Briefly: DDX3X ATPase inhibition, ADP-Glo assay. Format: biochemical. How it is done: For the more promising compound, derivative 10a, the inhibition of the ATPase activity of the human helicase DDX3X was evaluated. Different concentrations of the compound were incubated with 1 µM of purified recombinant DDX3X and ATPase activity was determined with the ADP-glo assay.
The ATPase enzymatic activity of DDX3X was determined by the ADP-Glo kit (Promega, MD, USA). The reaction was performed in ATPase buffer (20 mM Tris–HCl pH 8, 2 mM DTT, 70 mM KCl, 2 mM MgCl2, 5% DMSO) pre-incubating 1 µM DDX3X with different concentrations of inhibitor for 10 min at 25 °C. ATPase reaction started with the addition of 1 mM ATP. After 30 min of incubation at 25 °C, the assay was conducted following the manufacturer’s instructions. The ATPase enzymatic activity was analyzed using a 384-wells plate and the GloMax Discover Microplate Reader (Promega, MD, USA) and expressed as a percentage of inhibition calculated from the light units obtained.
(In general: In ADP-Glo the light output rises with the ADP produced.)

The nature of data set [4]: Human plasma stability. The settings on record: 100 µM. It is filed as in vitro ADME. The method, then: Finally, further studies were performed in order to investigate the stability in the presence of human plasma. All compounds were incubated at the fixed concentration of 100 µM in plasma for 24 h.
A DMSO stock solution of each compound was incubated in triplicate in the presence of human plasma and HEPES buffer (25 mM, 140 mM NaCl, pH 7.4) at the final concentration of 100 µM at 37 °C under shaking. At the selected time point of 0 and 24 h, 50 µL of the mixture was collected, treated with 1.0 mL of cold ACN, and centrifuged at 5000 rpm for 10 min. The supernatant was collected, and the amount of unmodified compound was quantified with the HLPC-UV/MS method above reported. Calculations of modified compounds were made using time zero as 100% of the unmodified compound.

Data set [5] in a line: Parallel artificial membrane permeability assay (PAMPA). Format: in vitro ADME. To be noted: pH 7.4, 5 h; for Papp at 5 h, 0.5 mM: room temperature, read-out: Apparent Permeability (Papp). The method, then: The trend appreciated in terms of solubility was confirmed by results obtained from permeability studies. In fact, parallel artificial membrane permeability assay (PAMPA) underlined how the low solubility of compounds 6 and 7 was accompanied by a major tendency of these derivatives to interact with the lipidic artificial membrane where they probably remained entrapped.
In order to assess the apparent permeability of selected compounds, a stock solution in DMSO of each derivative was prepared at the final concentration of 1 mM. By diluting the stocks 1:1 v/v with phosphate buffer (PBS 25 mM, pH 7.4), donor solutions were made. To mimic the gastrointestinal (GI) phospholipidic bilayer, 10 µL of a 1% w/v dodecane solution of phosphatidylcholine (PC) was used to coat filters. The acceptor solution, made of 1:1 v/v DMSO/PBS, was added to each well (300 µL), while the donor solution (150 µL) was added to each well of the filter plate. The sandwich plates were assembled and incubated for 5 h at room temperature. At the time point, the plates were separated, and the amount of compound passed through the phospholipid bilayer was measured by UV/LC-MS. Finally, apparent permeability (Papp) and membrane retention (MR%) were calculated as previously reported by us.
Background: In PAMPA a lipid-coated filter parts donor from acceptor wells.

Data set [6] can be described thus: in vitro. To be noted: human.
For data set [7], the system named is HIV-1 wild-type reference strain NL4-3. Briefly: Anti-HIV-1 BiCycle Assay (H9 cells, then TZM-bl reporter cells). Format: cell-based. To be noted: Human immunodeficiency virus 1, NL43, H9, read-out: IC50, half-maximal compound concentration inhibiting the 50% of HIV-1 replication.
A short description of data set [8]: in vitro. The settings on record: human. This is another data set of the same source.
Data set [9] deals with peripheral blood mononuclear cells (PBMC). On the set-up: method as in PMID 21698775. To be noted: read-out: CC50, cytotoxicity; cited from earlier work.
The subject of data set [10] is HIV. On the set-up: method as in PMID 21698775. The settings on record: PBMC; read-out: EC50, antiretroviral effect; cited from earlier work.

human helicase DDX3X, sequence (O00571 whole entry): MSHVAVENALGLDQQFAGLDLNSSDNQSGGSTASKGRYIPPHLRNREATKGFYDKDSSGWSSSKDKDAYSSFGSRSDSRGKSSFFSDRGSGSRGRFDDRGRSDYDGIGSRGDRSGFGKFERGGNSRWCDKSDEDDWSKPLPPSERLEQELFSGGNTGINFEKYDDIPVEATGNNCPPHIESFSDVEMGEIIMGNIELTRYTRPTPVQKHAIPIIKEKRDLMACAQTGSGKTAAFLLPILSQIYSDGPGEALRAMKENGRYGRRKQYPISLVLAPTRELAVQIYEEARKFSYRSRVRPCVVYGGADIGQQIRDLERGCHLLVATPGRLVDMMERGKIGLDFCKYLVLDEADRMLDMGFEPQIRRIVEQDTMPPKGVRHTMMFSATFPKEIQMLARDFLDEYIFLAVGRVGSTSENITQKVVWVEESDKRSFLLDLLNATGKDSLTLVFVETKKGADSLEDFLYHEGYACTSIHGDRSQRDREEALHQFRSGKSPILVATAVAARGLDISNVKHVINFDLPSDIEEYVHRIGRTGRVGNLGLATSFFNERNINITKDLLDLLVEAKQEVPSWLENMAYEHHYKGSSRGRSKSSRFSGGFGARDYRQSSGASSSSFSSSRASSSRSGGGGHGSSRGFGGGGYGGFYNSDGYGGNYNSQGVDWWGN

Regarding `Oc1ccccc1/C=N/Nc1nc(N2CCOCC2)nc(N2CCOCC2)n1` [10a], in data set [1], the “SI, Selectivity Index (ratio between CC50 and IC50)” value is reported as over 33.1; the IC50 worked out at 12.1 µM. Besides, the solubility in data set [2] is 3.23 µg/mL and 8.51 µM. In data set [3], the IC50 amounted to 6.6 µM. Besides, the “Plasma Stability % ± SD” value in data set [4] (24 h, 37 °C) is given as 98.48 ± 4.02%. In addition, the “Plasma Stability % ± SD” value in data set [4] (time 0 h (set as 100%)) worked out at 100.00 ± 0.28%. Also, in [5], the “Membrane retention (MR)” value was found to be 4.3% and the Papp at 5 h, 0.5 mM worked out at 7.89 ×10⁻⁶ cm/s.
Consider `CC(=O)Nc1ccc(/C=N/Nc2nc(N3CCOCC3)nc(N3CCOCC3)n2)cc1` [10b], for which the solubility in [2] is 3.46 µg/mL and 8.13 µM. The “Plasma Stability % ± SD” value in data set [4] (24 h, 37 °C) is on record as 98.41 ± 4.69%. In data set [4] (time 0 h (set as 100%)), the “Plasma Stability % ± SD” value is 100.00 ± 0.24%. Besides, in [5], the “Membrane retention (MR)” value came to 9.8% and the Papp at 5 h, 0.5 mM is 9.7 ×10⁻⁶ cm/s.
`Cc1cccc(/C=N/Nc2nc(N3CCOCC3)nc(N3CCOCC3)n2)c1` [10c]: the CC50 in data set [6] came to 74 µM. Moreover, the solubility in data set [2] is 4.5 µg/mL and 11.7 µM. Besides, in data set [4] (24 h, 37 °C), the “Plasma Stability % ± SD” value was 99.52 ± 3.45%. In addition, in [4] (time 0 h (set as 100%)), the “Plasma Stability % ± SD” value amounted to 100.00 ± 0.16%. In addition, in [5], the “Membrane retention (MR)” value stood at 4.9% and the Papp at 5 h, 0.5 mM was 9.78 ×10⁻⁶ cm/s.
Take `Cc1nnc(C(=O)NC(C)(C)c2nc(C(=O)NCc3ccc(F)cc3)c(O)c(=O)n2C)o1` [Raltegravir, reference compound]: in [6], the CC50 is over 100 µM. The IC50 in [7] turned out to be 0.0028 ± 0.0017 µM.
As for `CCC(CC)COC(=O)[C@H](C)N[P@](=O)(OC[C@H]1O[C@@](C#N)(c2ccc3c(N)ncnn23)[C@H](O)[C@@H]1O)Oc1ccccc1` [Remdesivir, reference compound], in data set [1], the “SI, Selectivity Index (ratio between CC50 and IC50)” value is 1356; the IC50 is 0.07 ± 0.04 µM. Moreover, the CC50 in data set [8] came out at 94.9 µM.
Regarding `Oc1ccccc1C=NNc1nc(Nc2ccc(F)cc2)nc(N2CCOCC2)n1` [compound 6], the values for the CC50 in data set [9] and in [8] were 10 µM and 3 µM, respectively. The same compound returned a solubility in data set [2] of under 0.1 µg/mL. The 50% effective concentration (EC50) in data set [10] is 2.5 µM. The “Plasma Stability % ± SD” value in [4] (24 h, 37 °C) turned out to be 98.78 ± 4.05%; in data set [4] (time 0 h (set as 100%)), 100.00 ± 0.19%. Besides, the “Membrane retention (MR)” value in data set [5] was 28.7%. Moreover, the Papp at 5 h, 0.5 mM in data set [5] was 4.74 ×10⁻⁶ cm/s.
On to `Oc1ccccc1C=NNc1nc(Nc2ccc(F)cc2)nc(Nc2ccc(F)cc2)n1` [compound 7], for which the CC50 in [9] is 8 µM; in [8] it was 0.8 µM. In data set [2], this compound registered a solubility of under 0.1 µg/mL. For the same compound, the EC50 in [10] is 2 µM. Further, the “Plasma Stability % ± SD” value in data set [4] (24 h, 37 °C) worked out at 99.56 ± 3.78%; in data set [4] (time 0 h (set as 100%)) it was 100.00 ± 0.28%. Moreover, the “Membrane retention (MR)” value in [5] is recorded as 15.5%. The Papp at 5 h, 0.5 mM in data set [5] worked out at 4.58 ×10⁻⁶ cm/s.

These data come from article PMC9782877 (Molecules, 2022).
